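Step 1: Grow cells in 96-well plates. Step 2: Expose to compound for 48 hours at 5 concentrations. Step 3: Interpolate endpoints linearly; if unreached, use highest concentration. Abbreviation: GI50, concentration required for 50% inhibition of growth.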 Activity calls are given as the source filed them. No stated cut-off is given here; in the data, active = GI50 up to about 1.1 µM and inactive = higher.
Legend:
Experiment in all cases: DTP human tumour cell line panel, 48 h
RPMI-8226 = system: RPMI-8226
OVCAR-8 = system: OVCAR-8
UACC-62 = system: UACC-62
A498 = system: A498
OVCAR-4 = system: OVCAR-4
SK-MEL-2 = system: SK-MEL-2
LOX IMVI = system: LOX IMVI
HCT-15 = system: HCT-15
NCI-H522 = system: NCI-H522
UACC-257 = system: UACC-257
K562 = system: K562
786-0 = system: 786-0
EKVX = system: EKVX
HCC 2998 = system: HCC 2998
CAKI-1 = system: CAKI-1
SN12C = system: SN12C

Structure (SMILES)	GI50 (RPMI-8226)	GI50 (OVCAR-8)	GI50 (UACC-62)	GI50 (A498)	GI50 (OVCAR-4)	GI50 (SK-MEL-2)	GI50 (LOX IMVI)	GI50 (HCT-15) [µM]	GI50 (NCI-H522)	GI50 (UACC-257)	GI50 (K562)	GI50 (786-0)	GI50 (EKVX)	GI50 (HCC 2998)	GI50 (CAKI-1)	GI50 (SN12C)
Cc1cc(C)nc(NS(=O)(=O)c2ccc(NC(=O)c3cccc4c(Nc5ccc(S(N)(=O)=O)cc5)c5ccccc5nc34)cc2)n1	12.8 µM (inactive)	30.3 µM (inactive)	2.88 µM (inactive)	> 94.2 µM (inactive)	35.1 µM (inactive)	10.2 µM (inactive)	19.4 µM (inactive)	> 100	13 µM (inactive)	28.1 µM (inactive)	7.85 µM (inactive)	50.8 µM (inactive)	> 100 µM (inactive)	14.8 µM (inactive)	> 100 µM (inactive)	16.1 µM (inactive)
CC1=NN(C(=O)c2ccc(Cl)cc2)C(=O)/C1=C/c1ccc(O)cc1	> 100 µM (inactive)	> 100 µM (inactive)	> 100 µM (inactive)	> 100 µM (inactive)	> 100 µM (inactive)	> 100 µM (inactive)	> 100 µM (inactive)	> 100	> 100 µM (inactive)	> 100 µM (inactive)	> 100 µM (inactive)	> 100 µM (inactive)	> 100 µM (inactive)	> 100 µM (inactive)	> 100 µM (inactive)	> 100 µM (inactive)
COC(=O)C1(F)C(=O)NC(=O)NC1OC (stereo unspecified)	90.6 µM (inactive)	34.1 µM (inactive)	18.6 µM (inactive)	> 100 µM (inactive)	> 100 µM (inactive)	> 100 µM (inactive)	11.9 µM (inactive)	22.9	75.5 µM (inactive)	> 100 µM (inactive)	96.2 µM (inactive)	39.7 µM (inactive)			83.9 µM (inactive)	69 µM (inactive)
COc1ccc2c(c1)[n+]([O-])c(C(=O)CC(=O)C(=O)Nc1cccc(Cl)c1C)c(C)[n+]2[O-]	83.6 µM (inactive)	> 100 µM (inactive)	> 100 µM (inactive)	> 100 µM (inactive)	> 100 µM (inactive)	> 100 µM (inactive)	> 100 µM (inactive)	> 100	26.2 µM (inactive)	> 100 µM (inactive)	60.7 µM (inactive)	> 100 µM (inactive)	> 100 µM (inactive)	> 100 µM (inactive)	> 100 µM (inactive)	> 100 µM (inactive)
CS(=O)(=O)NNS(=O)(=O)c1ccc(Cl)cc1	> 100 µM (inactive)	> 100 µM (inactive)	> 100 µM (inactive)	> 100 µM (inactive)	> 100 µM (inactive)	> 100 µM (inactive)	> 100 µM (inactive)	> 100	90.8 µM (inactive)	> 100 µM (inactive)	> 100 µM (inactive)	> 100 µM (inactive)	76.4 µM (inactive)	> 100 µM (inactive)	36.7 µM (inactive)	> 100 µM (inactive)
COC(=O)CCC(NC(=S)N/N=C/c1ccco1)C(=O)OC (stereo unspecified)		> 100 µM (inactive)	> 100 µM (inactive)	> 100 µM (inactive)	> 100 µM (inactive)	> 100 µM (inactive)	> 100 µM (inactive)	> 100	> 100 µM (inactive)	> 100 µM (inactive)	> 100 µM (inactive)	> 100 µM (inactive)	> 100 µM (inactive)	> 100 µM (inactive)		> 100 µM (inactive)
CCOP(=O)(OCC)/C(C#N)=C/c1ccco1	> 100 µM (inactive)	> 100 µM (inactive)	> 100 µM (inactive)	> 100 µM (inactive)	> 100 µM (inactive)	> 100 µM (inactive)	> 100 µM (inactive)	> 100	> 100 µM (inactive)	> 100 µM (inactive)	> 100 µM (inactive)	> 100 µM (inactive)	> 100 µM (inactive)	> 100 µM (inactive)	> 100 µM (inactive)	> 100 µM (inactive)
CN(C)CC1CCC(=C2CCCC2)C1=O (stereo unspecified)	0.859 µM (active)	20 µM (inactive)	17.3 µM (inactive)	18.7 µM (inactive)	16.7 µM (inactive)	18.4 µM (inactive)	16.6 µM (inactive)	5.65	1.71 µM (inactive)	17.4 µM (inactive)	2.86 µM (inactive)	7.52 µM (inactive)	18.6 µM (inactive)	18.2 µM (inactive)	> 100 µM (inactive)	10.7 µM (inactive)
COC1=CC2(C=CC1=O)c1cc(OC)c(OC)cc1CCN2C(=O)c1ccccc1 (stereo unspecified)	> 100 µM (inactive)	> 100 µM (inactive)	> 100 µM (inactive)	> 100 µM (inactive)			> 100 µM (inactive)	> 100	> 100 µM (inactive)	> 100 µM (inactive)	> 100 µM (inactive)	> 100 µM (inactive)	> 100 µM (inactive)	> 100 µM (inactive)	> 100 µM (inactive)	> 100 µM (inactive)
CCCCC#COP(=O)(OCC)OCC	> 100 µM (inactive)	> 100 µM (inactive)	> 100 µM (inactive)	> 100 µM (inactive)	> 100 µM (inactive)	> 100 µM (inactive)	> 100 µM (inactive)	> 100	> 100 µM (inactive)	> 100 µM (inactive)		> 100 µM (inactive)	> 100 µM (inactive)	> 100 µM (inactive)	> 100 µM (inactive)	> 100 µM (inactive)
O=C1c2ccccc2C(Br)(Br)c2ccccc21	> 10 µM (inactive)	> 100 µM (inactive)	> 100 µM (inactive)	> 10 µM (inactive)	1.16 µM (inactive)	> 31.6 µM (inactive)	> 31.6 µM (inactive)	> 31.6	25.4 µM (inactive)	> 100 µM (inactive)	> 31.6 µM (inactive)	> 31.6 µM (inactive)	> 100 µM (inactive)	> 31.6 µM (inactive)	> 10 µM (inactive)	> 31.6 µM (inactive)
Cc1ccccc1/N=C/c1ccc(N(CCC#N)S(=O)(=O)c2ccccc2)cc1	> 100 µM (inactive)	> 100 µM (inactive)	> 100 µM (inactive)	> 100 µM (inactive)	> 100 µM (inactive)	> 100 µM (inactive)	> 100 µM (inactive)	> 100	70.1 µM (inactive)	> 100 µM (inactive)	> 100 µM (inactive)	> 100 µM (inactive)	> 100 µM (inactive)	> 100 µM (inactive)	> 100 µM (inactive)	> 100 µM (inactive)
COC(=O)C1=C(c2ccc(Cl)cc2)C(O)NC(NN)=N1 (stereo unspecified)	> 100 µM (inactive)	> 100 µM (inactive)	> 100 µM (inactive)		> 100 µM (inactive)	> 100 µM (inactive)	> 100 µM (inactive)	> 100	> 100 µM (inactive)	> 100 µM (inactive)	> 100 µM (inactive)	> 100 µM (inactive)	> 100 µM (inactive)	> 100 µM (inactive)	> 100 µM (inactive)	> 100 µM (inactive)
CC12CCc3ccccc3C1=NNC(=O)C2 (stereo unspecified)	> 100 µM (inactive)	> 100 µM (inactive)		> 100 µM (inactive)	> 100 µM (inactive)	> 100 µM (inactive)	> 100 µM (inactive)	> 100	> 100 µM (inactive)	> 100 µM (inactive)	> 100 µM (inactive)	> 100 µM (inactive)	> 100 µM (inactive)	> 100 µM (inactive)	> 100 µM (inactive)	> 100 µM (inactive)
CC1=C(c2cc(C(=O)Nc3cccc(C(F)(F)F)c3)nc(NC#N)n2)Sc2ccccc2N1	> 100 µM (inactive)		> 100 µM (inactive)	> 100 µM (inactive)	31.7 µM (inactive)	> 100 µM (inactive)	> 100 µM (inactive)	> 100		> 100 µM (inactive)	> 100 µM (inactive)	97.5 µM (inactive)	> 100 µM (inactive)	> 100 µM (inactive)	> 100 µM (inactive)	> 100 µM (inactive)
CCOC(=O)c1c(-c2ccccc2)oc(-c2ccccc2)c1C(=O)OCC	50 µM (inactive)	> 100 µM (inactive)	> 100 µM (inactive)	60.7 µM (inactive)		94.2 µM (inactive)	> 100 µM (inactive)		> 100 µM (inactive)	77.6 µM (inactive)	67.3 µM (inactive)	> 100 µM (inactive)	> 100 µM (inactive)	67.1 µM (inactive)		> 100 µM (inactive)
Cc1ccc2c(c1)C(c1cccc3ccccc13)OC2=O (stereo unspecified)		84.5 µM (inactive)	> 100 µM (inactive)	26 µM (inactive)	35 µM (inactive)	> 100 µM (inactive)	> 100 µM (inactive)	> 100	> 100 µM (inactive)	53.8 µM (inactive)	> 100 µM (inactive)	56.9 µM (inactive)	69.8 µM (inactive)	> 100 µM (inactive)	> 100 µM (inactive)	> 100 µM (inactive)
NC(=S)/N=C(/c1nc2ccc(Cl)cc2nc1O)C(O)c1ccccc1Cl (stereo unspecified)	> 100 µM (inactive)	> 100 µM (inactive)	> 100 µM (inactive)	> 100 µM (inactive)	> 100 µM (inactive)	> 100 µM (inactive)	> 100 µM (inactive)	> 100	> 100 µM (inactive)	> 100 µM (inactive)	> 100 µM (inactive)	> 100 µM (inactive)	> 100 µM (inactive)	> 100 µM (inactive)		
